Reference: US10561614B2, “Tenofovir granules” (STEERLIFE INDIA PRIVATE LIMITED, priority 2017, dated 2020)

Experiment: Organic impurities of TDF granules by HPLC (USP Pending Monograph procedure 1), before and after twin screw granulation
Type: physicochemical
Settings: initial, no storage
Protocol: The test of organic impurities of Tenofovir Disoproxil Fumarate granules carried out by HPLC (Make-Agilent 1260 Infinity series).
The Tenofovir Disoproxil Fumarate granules sample was analyzed for organic impurities as per method based on Organic impurities, procedure 1 of USP Pending Monographs of Tenofovir Disoproxil Fumarate v.1 Authorized Sep. 1, 2011.
The standard, Tenofovir Disoproxil Fumarate (TDF) was prepared in solution A. concentration 0.502 μg/mL in solution. The sample i.e., TDF granules of the present invention was prepared in solution A, concentration 520.05 μg/mL.
The standard and sample solution was injected in chromatographic system and following impurity results are reported.
The test of organic impurities of Tenofovir Disoproxil Fumarate granules carried out by HPLC (Agilent 1260 Infinity series).
The Tenofovir Disoproxil Fumarate granules sample were analyzed for organic impurities as per Organic impurities, procedure 1 of USP Pending Monographs of Tenofovir Disoproxil Fumarate v.1 Authorized Sep. 1, 2011.
The standard [Tenofovir Disoproxil Fumarate (TDF)] was prepared in solution A. concentration 0.502 μg/mL in solution.
The sample [TDF granules of the present invention] was prepared in solution A, concentration 520.05 μg/mL.

CC(C)OC(=O)OCOP(=O)(CO[C@H](C)Cn1cnc2c(N)ncnc21)OCOC(=O)OC(C)C.O=C(O)/C=C/C(=O)O [Unprocessed TDF API, 9-[(R)-2-[[bis[[(isopropoxycarbonyl)oxy]-methoxy]phosphinyl]methoxy]propyl]adenine fumarate (1:1)]
(R)-9-(2-Phosphonomethoxypropyl)adenine impurity: BDL | Adenine impurity: Not detected | Any individual unspecified impurity: 0.02% | Tenofovir disoproxil carbamate impurity: Not detected | Tenofovir disoproxil dimer impurity: 0.04% | Tenofovir disoproxil ethyl ester impurity: 0.03% | Tenofovir isopropyl isoproxil impurity: 0.17% | Tenofovir isoproxil monoester impurity: 0.48% | Total impurities: 0.84% | Adenine impurity (listed as Unprocessed (API)): BDL | Any individual unspecified impurity (listed as Unprocessed (API)): 0.015% | Tenofovir isopropyl isoproxil impurity (listed as Unprocessed (API)): 0.118% | Tenofovir isoproxil monoester impurity (listed as Unprocessed (API)): 0.321% | Total impurities (listed as Unprocessed (API)): 0.490%
